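The compound was tested at five concentrations on cells cultured in 96-well plates, with a 48-hour exposure period. GI50 is the concentration that inhibits growth by half. Definition used: TGI = concentration required for complete inhibition of growth.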
Legend:
Test in all cases: NCI anticancer screen, dose series, 48 h
SF-268 CNS = test system: SF-268 CNS
LXFL 529 NSCLC = test system: LXFL 529 NSCLC
SW-620 colon = test system: SW-620 colon
DMS 273 small cell lung = test system: DMS 273 small cell lung
HT29 colon = test system: HT29 colon
U251 CNS = test system: U251 CNS
PC-3 prostate = test system: PC-3 prostate
SF-295 CNS = test system: SF-295 CNS
KM12 colon = test system: KM12 colon
NCI-H522 lung = test system: NCI-H522 lung

CCN(CC)CC(=O)NC1c2ccccc2Oc2ccccc21
TGI (SF-268 CNS): > 100 µM | TGI (LXFL 529 NSCLC): > 100 µM | TGI (SW-620 colon): > 100 µM | TGI (DMS 273 small cell lung): > 100 µM | TGI (HT29 colon): > 100 µM | TGI (U251 CNS): > 100 µM

O=c1[nH]c2ccccc2n1C1CCNCC1
GI50 (PC-3 prostate): > 100 µM | TGI (PC-3 prostate): > 100 µM | GI50 (SF-268 CNS): > 100 µM | TGI (SF-268 CNS): > 100 µM | GI50 (SF-295 CNS): > 100 µM | TGI (SF-295 CNS): > 100 µM | GI50 (SW-620 colon): > 100 µM | TGI (SW-620 colon): > 100 µM | GI50 (KM12 colon): > 100 µM | TGI (KM12 colon): > 100 µM | GI50 (HT29 colon): > 100 µM | TGI (HT29 colon): > 100 µM | GI50 (NCI-H522 lung): > 100 µM | TGI (NCI-H522 lung): > 100 µM | GI50 (U251 CNS): > 100 µM | TGI (U251 CNS): > 100 µM

Cc1ccc(N)c(S)c1
TGI (PC-3 prostate): 28.6 µM | TGI (SF-268 CNS): 46.2 µM | TGI (SF-295 CNS): 43.4 µM | TGI (SW-620 colon): 38.7 µM | TGI (KM12 colon): 36.7 µM | TGI (HT29 colon): 33.8 µM | TGI (NCI-H522 lung): 33.5 µM | TGI (U251 CNS): 28.5 µM

COc1cc2c(c3oc(-c4ccc(O)cc4)c(O)c(=O)c13)CCC(C)(C)O2
GI50 (PC-3 prostate): 1.17 µM | TGI (PC-3 prostate): > 100 µM | GI50 (SF-268 CNS): 0.122 µM | GI50 (SF-295 CNS): 0.0426 µM | TGI (SF-295 CNS): 0.194 µM | GI50 (SW-620 colon): 0.0872 µM | TGI (SW-620 colon): 0.31 µM | GI50 (KM12 colon): 0.384 µM | TGI (KM12 colon): 23.4 µM | GI50 (HT29 colon): 3.12 µM | TGI (HT29 colon): 10.9 µM | GI50 (NCI-H522 lung): 0.0776 µM | TGI (NCI-H522 lung): 0.232 µM | GI50 (U251 CNS): 0.107 µM | TGI (U251 CNS): 0.8 µM

CC(C)=CC[C@@H]1CC2(CC=C(C)C)C(=O)C(OC3(C(=O)c4ccccc4)C(=O)C4(CC=C(C)C)C[C@@H](CC=C(C)C)C(C)(C)C(CC=C(C)C)(C4=O)C3=O)(C(=O)c3ccccc3)C(=O)C(CC=C(C)C)(C2=O)C1(C)C (stereo partly specified)
GI50 (PC-3 prostate): 1.28 µM | TGI (PC-3 prostate): 4.36 µM | GI50 (SF-268 CNS): 1.13 µM | TGI (SF-268 CNS): 2.89 µM | GI50 (SF-295 CNS): 1.01 µM | TGI (SF-295 CNS): 2.5 µM | GI50 (SW-620 colon): 1.92 µM | TGI (SW-620 colon): 8.29 µM | GI50 (KM12 colon): 1.65 µM | TGI (KM12 colon): 6.13 µM | GI50 (HT29 colon): 1.41 µM | TGI (HT29 colon): 4.31 µM | GI50 (NCI-H522 lung): 1.07 µM | TGI (NCI-H522 lung): 3.72 µM | GI50 (U251 CNS): 1.64 µM | TGI (U251 CNS): 5.34 µM

Cc1cc(I)cc(CNCCN(C)C)c1O
GI50 (PC-3 prostate): > 84 µM | TGI (PC-3 prostate): > 100 µM | GI50 (SF-268 CNS): 65.9 µM | TGI (SF-268 CNS): > 100 µM | GI50 (SF-295 CNS): 42.6 µM | TGI (SF-295 CNS): > 88.1 µM | GI50 (SW-620 colon): > 100 µM | TGI (SW-620 colon): > 100 µM | GI50 (KM12 colon): > 100 µM | TGI (KM12 colon): > 100 µM | GI50 (HT29 colon): 35.2 µM | TGI (HT29 colon): > 100 µM | GI50 (NCI-H522 lung): > 86.3 µM | TGI (NCI-H522 lung): > 100 µM | GI50 (U251 CNS): 73.5 µM | TGI (U251 CNS): > 100 µM

NS(=O)(=O)c1ccc(N(/C=C/C(=O)C(F)(F)F)CC(=O)c2ccc(F)cc2)cc1
GI50 (PC-3 prostate): 22.7 µM | TGI (PC-3 prostate): 81.2 µM | GI50 (SF-268 CNS): 34.8 µM | TGI (SF-268 CNS): > 100 µM | GI50 (SF-295 CNS): 26.4 µM | TGI (SF-295 CNS): 85.7 µM | GI50 (SW-620 colon): 21.5 µM | TGI (SW-620 colon): 46.6 µM | GI50 (KM12 colon): 24.5 µM | TGI (KM12 colon): 57.9 µM | GI50 (HT29 colon): 35.2 µM | TGI (HT29 colon): > 100 µM | GI50 (NCI-H522 lung): 26.1 µM | TGI (NCI-H522 lung): 51.5 µM | GI50 (U251 CNS): 18.4 µM | TGI (U251 CNS): 48.9 µM

COC(=O)C(=O)C(C#N)c1nc2ccccc2s1 (stereo unspecified)
TGI (SF-268 CNS): > 100 µM | TGI (LXFL 529 NSCLC): > 100 µM | TGI (SF-295 CNS): > 100 µM | TGI (SW-620 colon): > 100 µM | TGI (DMS 273 small cell lung): > 100 µM | TGI (HT29 colon): > 100 µM | TGI (NCI-H522 lung): > 100 µM

C=C(CO)C(=O)OC1CC(=C)C2CC(O)C(C)C2C2OC(=O)C(=C)C12 (stereo unspecified)
TGI (PC-3 prostate): > 100 µM | TGI (SF-268 CNS): 39.4 µM | TGI (SF-295 CNS): 38.8 µM | TGI (SW-620 colon): 92.7 µM | TGI (KM12 colon): 33.6 µM | TGI (HT29 colon): 53.9 µM | TGI (NCI-H522 lung): 45.8 µM | TGI (U251 CNS): 64.2 µM

Cn1cc(C2=C(c3ccsc3)C(=O)NC2=O)c2ccccc21
GI50 (PC-3 prostate): > 25 µM | TGI (PC-3 prostate): > 25 µM | GI50 (SF-268 CNS): > 25 µM | TGI (SF-268 CNS): > 25 µM | GI50 (SF-295 CNS): > 25 µM | TGI (SF-295 CNS): > 25 µM | GI50 (SW-620 colon): > 25 µM | TGI (SW-620 colon): > 25 µM | GI50 (KM12 colon): > 25 µM | TGI (KM12 colon): > 25 µM | GI50 (HT29 colon): > 25 µM | TGI (HT29 colon): > 25 µM | GI50 (NCI-H522 lung): > 25 µM | TGI (NCI-H522 lung): > 25 µM | GI50 (U251 CNS): > 25 µM | TGI (U251 CNS): > 25 µM

COc1cc(/C=C/C(=O)c2cccc(-n3cc(-c4ccccc4)[nH]c3=O)c2)cc(OC)c1OC
GI50 (PC-3 prostate): 3.26 µM | TGI (PC-3 prostate): 20.7 µM | GI50 (SF-268 CNS): 1.92 µM | TGI (SF-268 CNS): 5.74 µM | GI50 (SF-295 CNS): 1.9 µM | TGI (SF-295 CNS): 4.41 µM | GI50 (SW-620 colon): 0.39 µM | TGI (SW-620 colon): 1.39 µM | GI50 (KM12 colon): 1.37 µM | TGI (KM12 colon): 2.66 µM | GI50 (HT29 colon): 0.662 µM | TGI (HT29 colon): 1.85 µM | GI50 (NCI-H522 lung): 0.958 µM | TGI (NCI-H522 lung): 2.52 µM | GI50 (U251 CNS): 0.63 µM | TGI (U251 CNS): 1.94 µM

Cc1ccc(S(=O)c2ccccc2[N+](=O)[O-])cc1 (stereo unspecified)
TGI (SF-295 CNS): > 100 µM | TGI (SW-620 colon): > 100 µM | TGI (KM12 colon): > 100 µM | TGI (DMS 273 small cell lung): > 100 µM | TGI (HT29 colon): > 100 µM | TGI (NCI-H522 lung): > 100 µM | TGI (U251 CNS): > 100 µM

COc1ccc(C2=NN(C(N)=S)C(c3ccc4c(c3)OCO4)C2)cc1 (stereo unspecified)
GI50 (PC-3 prostate): 4.33 µM | TGI (PC-3 prostate): > 100 µM | GI50 (SF-268 CNS): 2.79 µM | TGI (SF-268 CNS): 8.02 µM | GI50 (SF-295 CNS): 2.64 µM | TGI (SF-295 CNS): 11.9 µM | GI50 (SW-620 colon): 2.29 µM | TGI (SW-620 colon): 5.92 µM | GI50 (KM12 colon): 2.27 µM | TGI (KM12 colon): 5.19 µM | GI50 (HT29 colon): 3.13 µM | TGI (HT29 colon): > 100 µM | GI50 (NCI-H522 lung): 2.4 µM | TGI (NCI-H522 lung): 16.8 µM | GI50 (U251 CNS): 3.05 µM | TGI (U251 CNS): 19.6 µM

CCC(=C(c1ccc(OCCN2CCCCC2)cc1)c1ccc(OCCN2CCCCC2)cc1)c1ccc(Cl)cc1
GI50 (PC-3 prostate): > 16.7 µM | TGI (PC-3 prostate): > 16.7 µM | GI50 (SF-268 CNS): 6.7 µM | TGI (SF-268 CNS): > 16.7 µM | GI50 (SF-295 CNS): 6.53 µM | TGI (SF-295 CNS): > 16.7 µM | GI50 (SW-620 colon): 4.1 µM | TGI (SW-620 colon): > 16.7 µM | GI50 (KM12 colon): > 16.7 µM | TGI (KM12 colon): > 16.7 µM | GI50 (HT29 colon): 0.762 µM | TGI (HT29 colon): > 16.7 µM | GI50 (NCI-H522 lung): 7.72 µM | TGI (NCI-H522 lung): > 16.7 µM | GI50 (U251 CNS): 3.42 µM | TGI (U251 CNS): > 16.7 µM

N#CCCNc1nonc1-c1nc2ccccc2n1CC(=O)c1ccc(N)cc1
GI50 (PC-3 prostate): 0.0271 µM | TGI (PC-3 prostate): > 77.8 µM | GI50 (SF-268 CNS): 0.023 µM | TGI (SF-268 CNS): > 82 µM | GI50 (SF-295 CNS): < 0.01 µM | TGI (SF-295 CNS): > 100 µM | GI50 (SW-620 colon): 0.031 µM | TGI (SW-620 colon): > 100 µM | GI50 (KM12 colon): < 0.0118 µM | TGI (KM12 colon): 1.28 µM | GI50 (HT29 colon): 0.0226 µM | TGI (HT29 colon): 0.0701 µM | GI50 (NCI-H522 lung): < 0.01 µM | TGI (NCI-H522 lung): < 0.01 µM | GI50 (U251 CNS): 0.036 µM | TGI (U251 CNS): > 100 µM

CC(C)=CCc1cc2c(cc1O)C1=C(C(=O)C3=C(NCCS3(=O)=O)C1=O)C(C=C(C)C)O2 (stereo unspecified)
GI50 (PC-3 prostate): 5.58 µM | TGI (PC-3 prostate): > 16.7 µM | GI50 (SF-268 CNS): 4.13 µM | TGI (SF-268 CNS): > 16.7 µM | GI50 (SF-295 CNS): > 16.7 µM | TGI (SF-295 CNS): > 16.7 µM | GI50 (SW-620 colon): 5 µM | TGI (SW-620 colon): > 16.7 µM | GI50 (KM12 colon): 7.12 µM | TGI (KM12 colon): > 16.7 µM | GI50 (HT29 colon): 7.35 µM | TGI (HT29 colon): > 16.7 µM | GI50 (NCI-H522 lung): 2.93 µM | TGI (NCI-H522 lung): 9.09 µM | GI50 (U251 CNS): 4.19 µM | TGI (U251 CNS): 13.9 µM
